Converted amounts (≈) assume the structure as drawn. Non-standard residues stand in square brackets, D forms with d. Residues, ends and D or L forms follow the SMILES beside them. ξ: configuration not given here. ξAhp(2) = CCCCCC(N)C(=O)O
Tests used:
[1] = test system: E. coli ATCC 25922; assay: ROS generation, DCFH-DA; assay type: cell-based, Escherichia coli; conditions: 16 × 10^−6 M, E. coli ATCC 25922, DCFH-DA, 1 h; n = 3
Method: ROS accumulation levels were assessed by the fluorescent probe DCFH‐DA.^[ [63] ^] Logarithmic growth stage E. coli ATCC 25922 and S. aureus ATCC 29213 bacterial solutions were diluted to OD600 = 0.4 in PBS (pH = 7.4, 10 × 10^−3 M), followed by incubation with DCFH‐DA final concentration of 10 × 10^−6 M) for 30 min at 37 °C. Subsequently, the bacterial suspensions were then mixed with different concentrations of nano‐short peptides dilutions in equal volumes in a 96‐well plate and continued to incubate for 1 h (37 °C). Finally, the fluorescence intensity was measured using a microplate reader (excitation λ = 488 nm, emission λ = 525 nm).

[2] = test system: S. aureus ATCC 29213; assay: Cell wall permeability, NPN; assay type: cell-based, Staphylococcus aureus; conditions: n = 3
Method: The NPN fluorescent probe was used to assess the permeability of cell wall.^[ [64] ^] A logarithmic phase culture of S. aureus ATCC 29213 bacterial solution was diluted to OD600 = 0.2 in a 5 × 10^−3 M HEPES buffer (pH = 7.4 with 5 × 10^−3 M glucose). Following the addition of NPN (final concentration: 10 × 10^−6 M), the mixture was incubated for 30 min in the dark. Subsequently, the bacterial suspension was mixed with an equal volume of nano‐short peptides solution at different concentrations. […] Fluorescence intensity was measured (excitation λ = 350 nm, emission λ = 420 nm) using a microplate reader. The percentage of outer membrane permeability was calculated as: Permeability% = [(F treated – F negative control)/(F positive control – F negative control)] × 100%.

[3] = test system: P. aeruginosa PAO1; assay type: cell-based, Pseudomonas aeruginosa
Method: (§1) The MIC values of the nano‐short peptides were determined according to standard protocols.^[ [63] ^] Bacterial strains were revived from cryopreservation and cultured in Mueller–Hinton broth (MHB) to logarithmic growth phase, then diluted to a final density of 0.5–1 × 10⁶ CFU mL^−1. Serial dilutions of the nano‐short peptides were prepared in 0.2% bovine serum albumin (BSA) using a 96‐well plate format. Equal volumes of peptide solutions and bacterial suspensions were combined and incubated at 37 °C for 20–22 h. Bacterial growth was assessed by measuring absorbance at 492 nm, with MHB alone (negative control) and untreated bacterial suspension (positive control) included for reference.

[4] = test system: P. aeruginosa 27853; assay type: cell-based, Pseudomonas aeruginosa
Method: as §1

[5] = test system: MRSA 43300; assay type: cell-based, Methicillin-Resistant Staphylococcus aureus
Method: as §1

[6] = test system: S. aureus 29213; assay type: cell-based, Staphylococcus aureus
Method: as §1

[7] = test system: S. aureus 25923; assay type: cell-based, Staphylococcus aureus
Method: as §1

[8] = LTA binding, BODIPY-TR-cadaverine displacement; conditions: BC displacement, n = 3
Method: The binding ability of nano‐short peptides to LPS and LTA was evaluated using a BODIPY‐TR‐cadaverine (BC) displacement assay.^[ [59] ^] Test solutions containing LPS or LTA (50 µg mL^−1) were pre‐incubated with BC dye (5 µg mL^−1) for 4 h in the dark. Peptide solutions at varying concentrations were then mixed with the LPS or LTA, polymyxin B (final concentration 10 µg mL^−1) was used as a positive control, and LPS or LTA mixed with dye solution was used as a negative control. The fluorescence intensity (excitation λ = 580 nm, emission λ = 620 nm) was measured. %ΔF (au) = [(F treated – F negative control)/(F positive control – F negative control)] × 100%.

[9] = test system: E. coli ATCC 25922; assay: Respiratory chain dehydrogenase activity, RT reduction; assay type: cell-based, Escherichia coli; conditions: 16 × 10^−6 M, E. coli ATCC 25922, 1.5 h, 37 °C; n = 3
Method: The inhibitory effects of nano‐short peptides on RCD activity in bacteria were evaluated using an RT reduction assay.^[ [58] ^] Logarithmic growth stage E. coli ATCC 25922 and S. aureus ATCC 29213 bacterial solutions were diluted to OD600 = 0.4 in MHB liquid medium. A mixed solution was prepared by combining RT (1 mg mL^−1), glucose (100 × 10^−3 M), and Tris‐HCl buffer (50 × 10^−3 M, pH 8.6) in equal volumes (1:1:1). In 96‐well microplates, serial dilutions of nano‐short peptides were prepared using the mixed solution, followed by addition of an equal volume of bacterial suspension. Following incubation at 37 °C for 1.5 h, the absorbance at 492 nm was measured using a microplate reader, with untreated bacterial suspensions serving as controls.

[10] = test system: S. aureus ATCC 29213; assay: Time-kill kinetics; assay type: cell-based, Staphylococcus aureus; conditions: PBS pH 7.4, n = 3
Method: Samples were collected at pre‐determined time points post‐exposure, serially diluted, and plated on Mueller‐Hinton agar (MHA) for viable colony counting after 18–24 h incubation at 37 °C. Untreated bacterial suspensions served as controls.

SMILES	increase of ROS content vs untreated bacteria [1] [fold]	cell wall permeabilization, ciprofloxacin as the reference ([2]; 8 × 10^−6 M) [%]	cell wall permeabilization, ciprofloxacin as the reference ([2]; 16 × 10^−6 M) [%]	MIC, P. aeruginosa PAO1 [3] [µM]	MIC, P. aeruginosa 27853 [4] [µM]	MIC, MRSA 43300 [5] [µM]	MIC, S. aureus 29213 [6] [µM]	MIC, S. aureus 25923 [7] [µM]	LTA binding capacity, % of the antibiotic control ([8]; 8 × 10^−6 M) [%]	LTA binding capacity, % of the antibiotic control ([8]; 16 × 10^−6 M) [%]	RCD activity reduced to [9] [%]	time to eliminate all S. aureus ATCC 29213 cells ([10]; 1 × MIC) [s]	time to eliminate all S. aureus ATCC 29213 cells ([10]; 4 × MIC) [s]
CCCCCC(N)C(=O)NC(CCCCC)C(=O)NC(CCCCC)C(=O)NC(CCCCC)C(=O)N[C@H](CCCNC(=N)N)C(=O)N[C@@H](CCCNC(=N)N)C(=O)N[C@@H](CCCNC(=N)N)C(=O)N1CCC[C@H]1C(=O)O (stereo partly drawn) [Peptide B4] (H-[ξAhp(2)][ξAhp(2)][ξAhp(2)][ξAhp(2)][dR]RRP-OH; N-terminus assumed)	1.51	19.49	37.80	256 (≈ 280 µg/mL)	16 (≈ 17.5 µg/mL)	16 (≈ 17.5 µg/mL)	16 (≈ 17.5 µg/mL)	32 (≈ 35 µg/mL)	85.77	96.79	70.75		
N=C(N)NCCC[C@H](NC(=O)[C@@H](CCCNC(=N)N)NC(=O)[C@H](Cc1cccc2ccccc12)NC(=O)[C@H](Cc1cccc2ccccc12)NC(=O)[C@H](Cc1cccc2ccccc12)NC(=O)[C@@H](N)Cc1cccc2ccccc12)C(=O)N[C@@H](CCCNC(=N)N)C(=O)N1CCC[C@H]1C(=O)O (stereo in doubt) [Peptide N4]	2.26	48.48	110.54	4 (≈ 5.49 µg/mL)	8 (≈ 11 µg/mL)	4 (≈ 5.49 µg/mL)	4 (≈ 5.49 µg/mL)	4 (≈ 5.49 µg/mL)	65.60	73.08	60.10	≤ 3000	≤ 1200
